≈ marks a conversion by molar mass, not a printed value.
Key:
[1] = system: mice; details: mice (i.v.)
[2] = in vivo; details: mouse, iv
[3] = system: Bacillus subtilis, ATCC 6633; test: Antibacterial activity in vitro, MIC (Table 1); type: cell-based; details: ATCC6633, dilution method on plate culture (heart infusion agar), 10^6/ml, 37° C., 18 hours, read-out: Minimum Inhibitory Concentration (MIC)
Protocol: (§1) *Determined by the standard method of the Japan Society of Chemotherapy:
(§2) dilution method on plate culture (heart infusion agar culture), 10^6
(§3) /ml of bacteria were seeded and incubated at 37° C. for 18 hours.

[4] = system: Enterobacter cloacae, 12001; test: Antibacterial activity in vitro, MIC (Table 1); type: cell-based; details: read-out: Minimum Inhibitory Concentration (MIC)
Protocol: as §1, §2, §3

[5] = system: Escherichia coli NIHJ; test: Antibacterial activity in vitro, MIC (Table 1); type: cell-based; details: read-out: Minimum Inhibitory Concentration (MIC)
Protocol: as §1, §2, §3

[6] = system: Klebsiella pneumoniae, 501; test: Antibacterial activity in vitro, MIC (Table 1); type: cell-based; details: dilution method on plate culture (heart infusion agar), 10^6/ml, 37° C., 18 hours, read-out: Minimum Inhibitory Concentration (MIC)
Protocol: as §1, §2, §3

[7] = system: Proteus mirabilis, 1287; test: Antibacterial activity in vitro, MIC (Table 1); type: cell-based; details: dilution method on plate culture (heart infusion agar), 10^6/ml, 37° C., 18 hours, read-out: Minimum Inhibitory Concentration (MIC)
Protocol: as §1, §2, §3

[8] = system: Proteus vulgaris, 3167; test: Antibacterial activity in vitro, MIC (Table 1); type: cell-based; details: read-out: Minimum Inhibitory Concentration (MIC)
Protocol: as §1, §2, §3

[9] = system: Pseudomonas aeruginosa, 2063; test: Antibacterial activity in vitro, MIC (Table 1); type: cell-based; details: dilution method on plate culture (heart infusion agar), 10^6/ml, 37° C., 18 hours, read-out: Minimum Inhibitory Concentration (MIC)
Protocol: as §1, §2, §3

[10] = system: Serratia marcescens, 13001; test: Antibacterial activity in vitro, MIC (Table 1); type: cell-based; details: dilution method on plate culture (heart infusion agar), 10^6/ml, 37° C., 18 hours, read-out: Minimum Inhibitory Concentration (MIC)
Protocol: as §1, §2, §3

[11] = system: Shigella flexneri 2a, 5503; test: Antibacterial activity in vitro, MIC (Table 1); type: cell-based; details: dilution method on plate culture (heart infusion agar), 10^6/ml, 37° C., 18 hours, read-out: Minimum Inhibitory Concentration (MIC)
Protocol: as §1, §2, §3

[12] = system: Staphylococcus aureus, 209 P; test: Antibacterial activity in vitro, MIC (Table 1); type: cell-based; details: dilution method on plate culture (heart infusion agar), 10^6/ml, 37° C., 18 hours, read-out: Minimum Inhibitory Concentration (MIC)
Protocol: as §1, §2, §3

[13] = system: Streptococcus pyogenes, G-36; test: Antibacterial activity in vitro, MIC (Table 1); type: cell-based; details: G36, dilution method on plate culture (heart infusion agar), 10^6/ml, 37° C., 18 hours, read-out: Minimum Inhibitory Concentration (MIC)
Protocol: as §1, §2, §3

[14] = system: Bacillus subtilis, ATCC 6633; test: Antibacterial activity in vitro, MIC (Table 2); type: cell-based; details: ATCC6633, MullerHinton Bouillon, 10^6/ml, 37° C., 18 hours, read-out: Minimum Inhibitory Concentration (MIC)
Protocol: (§4) *Determined in MullerHinton Bouillon, 10^6 /ml of bacteria were seede
(§5) and incubated at 37° C. for 18 hours.

[15] = system: Enterobacter cloacae, 12001; test: Antibacterial activity in vitro, MIC (Table 2); type: cell-based; details: MullerHinton Bouillon, 10^6/ml, 37° C., 18 hours, read-out: Minimum Inhibitory Concentration (MIC)
Protocol: as §4, §5

[16] = system: Escherichia coli NIHJ; test: Antibacterial activity in vitro, MIC (Table 2); type: cell-based; details: MullerHinton Bouillon, 10^6/ml, 37° C., 18 hours, read-out: Minimum Inhibitory Concentration (MIC)
Protocol: as §4, §5

[17] = system: Klebsiella pneumoniae, 501; test: Antibacterial activity in vitro, MIC (Table 2); type: cell-based; details: MullerHinton Bouillon, 10^6/ml, 37° C., 18 hours, read-out: Minimum Inhibitory Concentration (MIC)
Protocol: as §4, §5

[18] = system: Proteus mirabilis, 1287; test: Antibacterial activity in vitro, MIC (Table 2); type: cell-based; details: MullerHinton Bouillon, 10^6/ml, 37° C., 18 hours, read-out: Minimum Inhibitory Concentration (MIC)
Protocol: as §4, §5

[19] = system: Proteus vulgaris, 3167; test: Antibacterial activity in vitro, MIC (Table 2); type: cell-based; details: MullerHinton Bouillon, 10^6/ml, 37° C., 18 hours, read-out: Minimum Inhibitory Concentration (MIC)
Protocol: as §4, §5

[20] = system: Pseudomonas aeruginosa, 2063; test: Antibacterial activity in vitro, MIC (Table 2); type: cell-based; details: MullerHinton Bouillon, 10^6/ml, 37° C., 18 hours, read-out: Minimum Inhibitory Concentration (MIC)
Protocol: as §4, §5

[21] = system: Pseudomonas sepacia, II D 5132; test: Antibacterial activity in vitro, MIC (Table 2); type: cell-based; details: IID5132, MullerHinton Bouillon, 10^6/ml, 37° C., 18 hours, read-out: Minimum Inhibitory Concentration (MIC)
Protocol: as §4, §5

[22] = system: Serratia marcescens, 13001; test: Antibacterial activity in vitro, MIC (Table 2); type: cell-based; details: MullerHinton Bouillon, 10^6/ml, 37° C., 18 hours, read-out: Minimum Inhibitory Concentration (MIC)
Protocol: as §4, §5

[23] = system: Shigella flexneri 2a, 5503; test: Antibacterial activity in vitro, MIC (Table 2); type: cell-based; details: MullerHinton Bouillon, 10^6/ml, 37° C., 18 hours, read-out: Minimum Inhibitory Concentration (MIC)
Protocol: as §4, §5

[24] = system: Staphylococcus aureus, 209 P; test: Antibacterial activity in vitro, MIC (Table 2); type: cell-based; details: MullerHinton Bouillon, 10^6/ml, 37° C., 18 hours, read-out: Minimum Inhibitory Concentration (MIC)
Protocol: as §4, §5

[25] = system: Streptococcus pyogenes, G-36; test: Antibacterial activity in vitro, MIC (Table 2); type: cell-based; details: G36, MullerHinton Bouillon, 10^6/ml, 37° C., 18 hours, read-out: Minimum Inhibitory Concentration (MIC)
Protocol: as §4, §5

[26] = system: Pseudomonas sepacia, II D 1340; test: Antibacterial activity in vitro, MIC (Table 1); type: cell-based; details: IID1340, dilution method on plate culture (heart infusion agar), 10^6/ml, 37° C., 18 hours, read-out: Minimum Inhibitory Concentration (MIC)
Protocol: as §1, §2, §3

[27] = system: gram-negative and gram-positive bacteria (test organisms); test: Antibacterial activity (in vitro), comparison in words; type: cell-based; details: compounds of this invention versus known compounds / PPA
Protocol: as §1, §2, §3, §4, §5

[28] = Enterobacter cloacae, 12001, dilution method on plate culture (heart infusion agar), 10^6/ml, 37° C., 18 hours
[29] = Escherichia coli NIHJ, dilution method on plate culture (heart infusion agar), 10^6/ml, 37° C., 18 hours
[30] = Proteus vulgaris, 3167, dilution method on plate culture (heart infusion agar), 10^6/ml, 37° C., 18 hours

Compound	toxicity (in words) [1]	LD50 [2]	MIC [3]	MIC [4, 28]	MIC [5, 29]	MIC [6]	MIC [7]	MIC [8, 30]	MIC [9]	MIC [10]	MIC [11]	MIC [12]	MIC [13]	MIC [14]	MIC [15]	MIC [16]	MIC [17]	MIC [18]	MIC [19]	MIC [20]	further results
CC1CCc2c(N3CCN(C)CC3)c(F)cc3c(=O)c(C(=O)O)cn1c23 (stereo not drawn) [8-(4-methyl-1-piperazinyl)-9-fluoro-5-methyl-6,7-dihydro-1-oxo-1H,5H-benz[ij]quinolizine-2-carboxylic acid, reference compound]	comparatively high toxicity	135 mg/kg																			
CC1COc2c(N3CCN(C)CC3)c(F)cc3c(=O)c(C(=O)O)cn1c23 (stereo not drawn) [Ia, 9-fluoro-10-(4-methyl-1-piperazinyl)-3-methyl-7-oxo-2,3-dihydro-7H-pyrido[1,2,3-de][1,4]benzoxazine-6-carboxylic acid]		380 mg/kg	0.2 µg/mL (≈ 0.553 µM)	0.1 µg/mL (≈ 0.277 µM)	≤ 0.025 µg/mL	0.2 µg/mL (≈ 0.553 µM)	0.1 µg/mL (≈ 0.277 µM)	0.05 µg/mL (≈ 0.138 µM)	1.56 µg/mL (≈ 4.32 µM)	0.2 µg/mL (≈ 0.553 µM)	0.05 µg/mL (≈ 0.138 µM)	0.39 µg/mL (≈ 1.08 µM)	1.56 µg/mL (≈ 4.32 µM)	0.1 µg/mL (≈ 0.277 µM)	0.1 µg/mL (≈ 0.277 µM)	≤ 0.05 µg/mL	0.39 µg/mL (≈ 1.08 µM)	0.1 µg/mL (≈ 0.277 µM)	≤ 0.05 µg/mL	0.78 µg/mL (≈ 2.16 µM)	MIC [21]: 12.5 µg/mL (≈ 34.6 µM); MIC [22]: 0.1 µg/mL (≈ 0.277 µM); MIC [23]: ≤ 0.05 µg/mL; MIC [24]: 0.39 µg/mL (≈ 1.08 µM); MIC [25]: 1.56 µg/mL (≈ 4.32 µM)
CC1COc2c(N3CCNCC3)c(F)cc3c(=O)c(C(=O)O)cn1c23 (stereo not drawn) [Ib, 9-fluoro-3-methyl-7-oxo-10-(1-piperazinyl)-2,3-dihydro-7H-pyrido[1,2,3-de][1,4]benzoxazine-6-carboxylic acid]			0.39 µg/mL (≈ 1.12 µM)	0.2 µg/mL (≈ 0.576 µM)	≤ 0.025 µg/mL	0.39 µg/mL (≈ 1.12 µM)	0.1 µg/mL (≈ 0.288 µM)	0.05 µg/mL (≈ 0.144 µM)	0.78 µg/mL (≈ 2.25 µM)	0.78 µg/mL (≈ 2.25 µM)	0.05 µg/mL (≈ 0.144 µM)	0.39 µg/mL (≈ 1.12 µM)	3.13 µg/mL (≈ 9.01 µM)								MIC [26]: 12.5 µg/mL (≈ 36 µM)
CC1COc2c(N3CCC(O)C3)c(F)cc3c(=O)c(C(=O)O)cn1c23 (stereo not drawn) [Ic, 9-fluoro-10-(3-hydroxy-1-pyrrolidinyl)-3-methyl-7-oxo-2,3-dihydro-7H-pyrido[1,2,3-de][1,4]benzoxazine-6-carboxylic acid]			0.05 µg/mL (≈ 0.144 µM)	0.2 µg/mL (≈ 0.574 µM)	0.05 µg/mL (≈ 0.144 µM)	0.78 µg/mL (≈ 2.24 µM)	0.1 µg/mL (≈ 0.287 µM)	0.1 µg/mL (≈ 0.287 µM)	1.56 µg/mL (≈ 4.48 µM)	0.78 µg/mL (≈ 2.24 µM)	0.1 µg/mL (≈ 0.287 µM)	0.1 µg/mL (≈ 0.287 µM)	0.78 µg/mL (≈ 2.24 µM)								
CC1COc2c(N3CCN(C)CC3)c(Cl)cc3c(=O)c(C(=O)O)cn1c23 (stereo not drawn) [Id, 9-chloro-3-methyl-10-(4-methyl-1-piperazinyl)-7-oxo-2,3-dihydro-7H-pyrido[1,2,3-de][1,4]benzoxazine-6-carboxylic acid]														0.1 µg/mL (≈ 0.265 µM)	≤ 0.05 µg/mL	≤ 0.05 µg/mL	0.2 µg/mL (≈ 0.529 µM)	0.1 µg/mL (≈ 0.265 µM)	≤ 0.05 µg/mL	0.78 µg/mL (≈ 2.06 µM)	MIC [21]: 6.25 µg/mL (≈ 16.5 µM); MIC [22]: 0.1 µg/mL (≈ 0.265 µM); MIC [23]: ≤ 0.05 µg/mL; MIC [24]: 0.2 µg/mL (≈ 0.529 µM); MIC [25]: 12.5 µg/mL (≈ 33.1 µM)
CCn1cc(C(=O)O)c(=O)c2cnc(N3CCNCC3)nc21 [PPA, 8-ethyl-5,8-dihydro-5-oxo-2-(1-piperazinyl)-pyrido[2,3-d]pyrimidine-6-carboxylic acid, reference compound]	low toxicity		6.25 µg/mL (≈ 20.6 µM)			6.25 µg/mL (≈ 20.6 µM)	6.25 µg/mL (≈ 20.6 µM)		25 µg/mL (≈ 82.4 µM)	6.25 µg/mL (≈ 20.6 µM)	1.56 µg/mL (≈ 5.14 µM)	12.5 µg/mL (≈ 41.2 µM)	> 100 µg/mL								MIC ([4]; Enterobacter cloacae, 12001, 18 h): 1.56 µg/mL (≈ 5.14 µM); MIC ([5]; Escherichia coli, 18 h): 1.56 µg/mL (≈ 5.14 µM); MIC ([8]; Proteus vulgaris, 3167, 18 h): 1.56 µg/mL (≈ 5.14 µM); MIC [26]: 100 µg/mL (≈ 330 µM); antibacterial activity (in words) [27]: much weaker than the compounds of this invention
